Patent US10785975B2, “Water and feed antimicrobial preservative” (priority 2009, dated 2020)
Where two headings read alike, the source gives them in different places.

Legend:
Salmonella typhimurium [1] = test: Study 4: pelargonic acid (1-20%) in buffered propionic or acetic acid in water; type: cell-based
Protocol: (§1) Propionic and acetic acids were buffered with ammonium hydroxide to a pH of 3 and combined with pelargonic in the ratios listed. Acid content of the buffered solutions was determined by weight to weight ratio calculation (weight of acid/total weight of buffered solution) and adjusted to provide an equal acid value for each treatment. […] The pHs of the deionized water solutions were recorded and any problems with solubility noted.
(§2) 100 ul of a nutrient broth culture of Salmonella typhimurium was added to each dilution tube. After addition, tubes were vortexed and allowed to stand. At 4 and 24 hours after addition of the inoculum, 100 ul of the solution was plated on Standard Plate agar (triplicate plates). Plates were incubated at 37° C. for 24 hours prior to enumeration.

Salmonella typhimurium [2] = test: Example 3: buffered organic acid mixtures with pelargonic acid in water; type: cell-based
Protocol: as §1, with “Procedure: Propionic” for “Propionic”, “above.” for “listed.”
as §2, with “enumeration. The minimum effective dose of each acid was determined by linear regression.” for “enumeration.”

Salmonella typhimurium [3] = test: Example 1: effect of pH buffering of acetic and propionic acid on antimicrobial activity in water; type: cell-based; details: for MIC at 4 Hr / MIC at 24 HR: Minimum Inhibitory Concentrations, by linear regression over 0.025-0.1% acid solutions, pH 3
Protocol: Propionic and acetic acids were buffered with ammonium hydroxide to pHs ranging from 1 to 7. Acid contents of the buffered solutions were determined by a weight to weight ratio calculation to obtain the same acid content in the test solutions. […] The pHs of the deionized water solutions were recorded and any problems with solubility noted.
as §2, with “enumeration. The minimum effective dose of each acid was determined by linear regression.” for “enumeration.”

Salmonella typhimurium [4] = test: Study 6: capric acid in acetic or propionic acid against salmonella in poultry feed; type: cell-based; details: Capric/Acetic acids, 24 hours after treatment
Protocol: Commercial poultry feed amended with Salmonella typhimurium was treated with 1 or 3 kg/MT of the solutions listed below. Twenty four hours after treatment, 10 gr of feed was added to 90 ml Butterfield buffer, mixed and then 100 ul of the solution was plated on Standard Plate agar (triplicate plates). Plates were incubated at 37° C. for 24 hours prior to enumeration.

M. gypseum = details: acids tested independently, cited from earlier work
[5] = Product Concentration 0.025 (% total acid solution in water)
[6] = Product Concentration 0.05 (% total acid solution in water)
[7] = Product Conc. 0.025 (% total acid solution in water), 4 hr
[8] = Product Conc. 0.025 (% total acid solution in water)
[9] = Product Conc. 0.05 (% total acid solution in water), 4 hr
[10] = Product Conc. 0.05 (% total acid solution in water)
[11] = Product Conc. 0.075 (% total acid solution in water), 4 hr
[12] = Product Conc. 0.075 (% total acid solution in water)
[13] = Product Conc. 0.1 (% total acid solution in water), 4 hr
[14] = Product Conc. 0.1 (% total acid solution in water)
[15] = Product Conc. 0.025 (% acid solution in water)
[16] = Product Conc. 0.05 (% acid solution in water)
[17] = Product Conc. 0.075 (% acid solution in water)
[18] = Product Conc. 0.1 (% acid solution in water)

CCC(=O)O [Propionic pH 3, Propionic acid]
Salmonella at time Interval 4 hr % reduction (Salmonella typhimurium [1]; [5]): 29% | Salmonella at time Interval 4 hr cfu/g (Salmonella typhimurium [1]; [5]): 990 cfu/g | Salmonella at time Interval 24 hr % reduction (Salmonella typhimurium [1]; [5]): 91% | Salmonella at time Interval 24 hr cfu/g (Salmonella typhimurium [1]; [5]): 130 cfu/g | Salmonella at time Interval 4 hr % reduction (Salmonella typhimurium [1]; [6]): 29% | Salmonella at time Interval 4 hr cfu/g (Salmonella typhimurium [1]; [6]): 1000 cfu/g | Salmonella at time Interval 24 hr % reduction (Salmonella typhimurium [1]; [6]): 96% | Salmonella at time Interval 24 hr cfu/g (Salmonella typhimurium [1]; [6]): 50 cfu/g | Salmonella at time Interval 4 hr % reduction (Salmonella typhimurium [2]; [7]): 25% | Salmonella at time Interval 4 hr cfu/g (Salmonella typhimurium [2]; [7]): 1133 cfu/g | Salmonella at time Interval 24 hr % reduction (Salmonella typhimurium [2]; [8]): 95% | Salmonella at time Interval 24 hr cfu/g (Salmonella typhimurium [2]; [8]): 70 cfu/g | Salmonella at time Interval 4 hr % reduction (Salmonella typhimurium [2]; [9]): 42% | Salmonella at time Interval 4 hr cfu/g (Salmonella typhimurium [2]; [9]): 880 cfu/g | Salmonella at time Interval 24 hr % reduction (Salmonella typhimurium [2]; [10]): 99% | Salmonella at time Interval 24 hr cfu/g (Salmonella typhimurium [2]; [10]): 17 cfu/g | Salmonella at time Interval 4 hr % reduction (Salmonella typhimurium [2]; [11]): 25% | Salmonella at time Interval 4 hr cfu/g (Salmonella typhimurium [2]; [11]): 1133 cfu/g | Salmonella at time Interval 24 hr % reduction (Salmonella typhimurium [2]; [12]): 99% | Salmonella at time Interval 24 hr cfu/g (Salmonella typhimurium [2]; [12]): 20 cfu/g | Salmonella at time Interval 4 hr % reduction (Salmonella typhimurium [2]; [13]): 44% | Salmonella at time Interval 4 hr cfu/g (Salmonella typhimurium [2]; [13]): 857 cfu/g | Salmonella at time Interval 24 hr % reduction (Salmonella typhimurium [2]; [14]): 99% | Salmonella at time Interval 24 hr cfu/g (Salmonella typhimurium [2]; [14]): 13 cfu/g | MIC at 4 Hr (Salmonella typhimurium [3]): 0.149 | MIC at 24 HR (Salmonella typhimurium [3]): 0.069 | Salmonella at time Interval 4 hr % reduction (Salmonella typhimurium [3]; [15]): 2% | Salmonella at time Interval 4 hr cfu/g (Salmonella typhimurium [3]; [15]): 1467 cfu/g | Salmonella at time Interval 24 hr % reduction (Salmonella typhimurium [3]; [15]): 84% | Salmonella at time Interval 24 hr cfu/g (Salmonella typhimurium [3]; [15]): 190 cfu/g | Salmonella at time Interval 4 hr % reduction (Salmonella typhimurium [3]; [16]): 44% | Salmonella at time Interval 4 hr cfu/g (Salmonella typhimurium [3]; [16]): 847 cfu/g | Salmonella at time Interval 24 hr % reduction (Salmonella typhimurium [3]; [16]): 93% | Salmonella at time Interval 24 hr cfu/g (Salmonella typhimurium [3]; [16]): 83 cfu/g | Salmonella at time Interval 4 hr % reduction (Salmonella typhimurium [3]; [17]): 35% | Salmonella at time Interval 4 hr cfu/g (Salmonella typhimurium [3]; [17]): 973 cfu/g | Salmonella at time Interval 24 hr % reduction (Salmonella typhimurium [3]; [17]): 95% | Salmonella at time Interval 24 hr cfu/g (Salmonella typhimurium [3]; [17]): 60 cfu/g | Salmonella at time Interval 4 hr % reduction (Salmonella typhimurium [3]; [18]): 60% | Salmonella at time Interval 4 hr cfu/g (Salmonella typhimurium [3]; [18]): 603 cfu/g | Salmonella at time Interval 24 hr % reduction (Salmonella typhimurium [3]; [18]): 98% | Salmonella at time Interval 24 hr cfu/g (Salmonella typhimurium [3]; [18]): 27 cfu/g

CC(=O)O [Acetic pH 3, Acetic acid]
Salmonella at time Interval 4 hr % reduction (Salmonella typhimurium [1]; [5]): 29% | Salmonella at time Interval 4 hr cfu/g (Salmonella typhimurium [1]; [5]): 1000 cfu/g | Salmonella at time Interval 24 hr % reduction (Salmonella typhimurium [1]; [5]): 96% | Salmonella at time Interval 24 hr cfu/g (Salmonella typhimurium [1]; [5]): 60 cfu/g | Salmonella at time Interval 4 hr % reduction (Salmonella typhimurium [1]; [6]): 32% | Salmonella at time Interval 4 hr cfu/g (Salmonella typhimurium [1]; [6]): 950 cfu/g | Salmonella at time Interval 24 hr % reduction (Salmonella typhimurium [1]; [6]): 99% | Salmonella at time Interval 24 hr cfu/g (Salmonella typhimurium [1]; [6]): 20 cfu/g | Salmonella at time Interval 4 hr % reduction (Salmonella typhimurium [2]; [7]): 38% | Salmonella at time Interval 4 hr cfu/g (Salmonella typhimurium [2]; [7]): 943 cfu/g | Salmonella at time Interval 24 hr % reduction (Salmonella typhimurium [2]; [8]): 92% | Salmonella at time Interval 24 hr cfu/g (Salmonella typhimurium [2]; [8]): 123 cfu/g | Salmonella at time Interval 4 hr % reduction (Salmonella typhimurium [2]; [9]): 34% | Salmonella at time Interval 4 hr cfu/g (Salmonella typhimurium [2]; [9]): 1007 cfu/g | Salmonella at time Interval 24 hr % reduction (Salmonella typhimurium [2]; [10]): 92% | Salmonella at time Interval 24 hr cfu/g (Salmonella typhimurium [2]; [10]): 120 cfu/g | Salmonella at time Interval 4 hr % reduction (Salmonella typhimurium [2]; [11]): 34% | Salmonella at time Interval 4 hr cfu/g (Salmonella typhimurium [2]; [11]): 1007 cfu/g | Salmonella at time Interval 24 hr % reduction (Salmonella typhimurium [2]; [12]): 95% | Salmonella at time Interval 24 hr cfu/g (Salmonella typhimurium [2]; [12]): 77 cfu/g | Salmonella at time Interval 4 hr % reduction (Salmonella typhimurium [2]; [13]): 36% | Salmonella at time Interval 4 hr cfu/g (Salmonella typhimurium [2]; [13]): 967 cfu/g | Salmonella at time Interval 24 hr % reduction (Salmonella typhimurium [2]; [14]): 95% | Salmonella at time Interval 24 hr cfu/g (Salmonella typhimurium [2]; [14]): 83 cfu/g | MIC at 4 Hr (Salmonella typhimurium [3]): 0.176 | MIC at 24 HR (Salmonella typhimurium [3]): 0.073 | Salmonella at time Interval 4 hr % reduction (Salmonella typhimurium [3]; [15]): 27% | Salmonella at time Interval 4 hr cfu/g (Salmonella typhimurium [3]; [15]): 1100 cfu/g | Salmonella at time Interval 24 hr % reduction (Salmonella typhimurium [3]; [15]): 75% | Salmonella at time Interval 24 hr cfu/g (Salmonella typhimurium [3]; [15]): 300 cfu/g | Salmonella at time Interval 4 hr % reduction (Salmonella typhimurium [3]; [16]): 44% | Salmonella at time Interval 4 hr cfu/g (Salmonella typhimurium [3]; [16]): 843 cfu/g | Salmonella at time Interval 24 hr % reduction (Salmonella typhimurium [3]; [16]): 90% | Salmonella at time Interval 24 hr cfu/g (Salmonella typhimurium [3]; [16]): 117 cfu/g | Salmonella at time Interval 4 hr % reduction (Salmonella typhimurium [3]; [17]): 38% | Salmonella at time Interval 4 hr cfu/g (Salmonella typhimurium [3]; [17]): 927 cfu/g | Salmonella at time Interval 24 hr % reduction (Salmonella typhimurium [3]; [17]): 92% | Salmonella at time Interval 24 hr cfu/g (Salmonella typhimurium [3]; [17]): 90 cfu/g | Salmonella at time Interval 4 hr % reduction (Salmonella typhimurium [3]; [18]): 42% | Salmonella at time Interval 4 hr cfu/g (Salmonella typhimurium [3]; [18]): 873 cfu/g | Salmonella at time Interval 24 hr % reduction (Salmonella typhimurium [3]; [18]): 96% | Salmonella at time Interval 24 hr cfu/g (Salmonella typhimurium [3]; [18]): 43 cfu/g

CC(=O)O [Acetic acid]
MIC at 4 HR (Salmonella typhimurium [2]; Minimum Inhibitory Concentration of Pelargonic when mixed with acetic or propionic acid (buffered to pH 3), by linear regression, 4 hr): 0.171 | % Reduction (Salmonella typhimurium [4]; 1 kg/ton): 41.3% | cfu/g (Salmonella typhimurium [4]; 1 kg/ton): 3367 cfu/g | % Reduction (Salmonella typhimurium [4]; 3 kg/ton): 54.6% | cfu/g (Salmonella typhimurium [4]; 3 kg/ton): 2600 cfu/g

CCCCCCCCCC(=O)O [capric acid]
minimum inhibitory concentration (MTC) to prevent growth of M. gypseum (M. gypseum; in liquid media): 75 µg/mL | minimum inhibitory concentration (MTC) to prevent growth of M. gypseum (M. gypseum; on solid media): 20 µg/mL
